Data published in PubChem BioAssay AID1963442 (Molecular Pharmacology Branch, DTP, NCI, 2024).

Tested on: MPNST complex spheroid with HUVEC/MSC, growth, % test/control
Test: Anticancer human tumor MPNST cell line growth inhibition [Asc];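 further: compounds left on spheroids for seven days before reading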
Conditions: for IC50: curve of first compound; for viability, T/C: stronger effect = lower value
Outline: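 Complex spheroids combining tumor cells with HUVEC endothelial cells and human MSCs, at 37 degrees C, 5% CO2; agents tested alone or combined, half-log dilutions from at or near clinical Cmax, or 10 microM if Cmax unknown.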

[1] = second compound 0.1 µM, first compound 0.0316 µM
[2] = second compound 0.1 µM, first compound 0.1 µM
[3] = second compound 0.1 µM, first compound 0.316 µM
[4] = second compound 0.1 µM, first compound 1 µM
[5] = second compound 0.316 µM, first compound 0.0316 µM
[6] = second compound 0.316 µM, first compound 0.1 µM
[7] = second compound 0.316 µM, first compound 0.316 µM
[8] = second compound 0.316 µM, first compound 1 µM
[9] = second compound 1 µM, first compound 0.0316 µM
[10] = second compound 1 µM, first compound 0.1 µM
[11] = second compound 1 µM, first compound 0.316 µM
[12] = second compound 1 µM, first compound 1 µM
[13] = second compound 3.16 µM, first compound 0.0316 µM
[14] = second compound 3.16 µM, first compound 0.1 µM
[15] = second compound 3.16 µM, first compound 0.316 µM
[16] = second compound 3.16 µM, first compound 1 µM
[17] = second compound 10 µM, first compound 0.0316 µM
[18] = second compound 10 µM, first compound 0.1 µM
[19] = second compound 10 µM, first compound 0.316 µM
[20] = second compound 10 µM, first compound 1 µM
[21] = second compound 0.1 µM, first compound 0.00316 µM
[22] = second compound 0.1 µM, first compound 0.01 µM
[23] = second compound 0.316 µM, first compound 0.00316 µM
[24] = second compound 0.316 µM, first compound 0.01 µM
[25] = second compound 1 µM, first compound 0.00316 µM
[26] = second compound 1 µM, first compound 0.01 µM
[27] = second compound 3.16 µM, first compound 0.00316 µM
[28] = second compound 3.16 µM, first compound 0.01 µM
[29] = second compound 10 µM, first compound 0.00316 µM
[30] = second compound 10 µM, first compound 0.01 µM

C=CC(=O)N1CCN(c2nc(=O)n(-c3c(C)ccnc3C(C)C)c3nc(-c4c(O)cccc4F)c(F)cc23)C(C)C1 (stereo not given) + Cc1c(S(C)(=O)=O)c(-c2cc(F)cc(N3CCN(c4ccc(NS(=O)(=O)c5ccc(NC(CCN6CCC(C(=O)OCCCP(=O)(O)O)CC6)CSc6ccccc6)c(S(=O)(=O)C(F)(F)F)c5)cc4)CC3)c2)c(-c2ccc(Cl)cc2)n1C(C)C
IC50 (second compound 0.1 µM): > 10000 nM | IC50 (second compound 0.316 µM): > 10000 nM | IC50 (second compound 1 µM): > 10000 nM | IC50 (second compound 3.16 µM): > 10000 nM | IC50 (second compound 10 µM): > 10000 nM | viability, T/C [1]: 71.9% | viability, T/C [2]: 74.7% | viability, T/C [3]: 84.2% | viability, T/C [4]: 96.2% | viability, T/C (second compound 0.1 µM, first compound 3.16 µM): 93.4% | viability, T/C (second compound 0.1 µM, first compound 10 µM): 105% | viability, T/C [5]: 79.4% | viability, T/C [6]: 93.8% | viability, T/C [7]: 76.7% | viability, T/C [8]: 88.9% | viability, T/C (second compound 0.316 µM, first compound 3.16 µM): 85.7% | viability, T/C (second compound 0.316 µM, first compound 10 µM): 108% | viability, T/C [9]: 90.8% | viability, T/C [10]: 85.1% | viability, T/C [11]: 89.8% | viability, T/C [12]: 89.9% | viability, T/C (second compound 1 µM, first compound 3.16 µM): 101% | viability, T/C (second compound 1 µM, first compound 10 µM): 118% | viability, T/C [13]: 66.5% | viability, T/C [14]: 88% | viability, T/C [15]: 84.6% | viability, T/C [16]: 99% | viability, T/C (second compound 3.16 µM, first compound 3.16 µM): 100% | viability, T/C (second compound 3.16 µM, first compound 10 µM): 99% | viability, T/C [17]: 83.5% | viability, T/C [18]: 91.2% | viability, T/C [19]: 83.8% | viability, T/C [20]: 97.1% | viability, T/C (second compound 10 µM, first compound 3.16 µM): 115% | viability, T/C (second compound 10 µM, first compound 10 µM): 115%

CCN1C(C(=O)NC23CCC(C(=O)O)(CC2)CC3)C(c2cccc(Cl)c2F)C2(C(=O)Nc3cc(Cl)ccc32)C12CCCCC2 (stereo not given) + Cc1c(S(C)(=O)=O)c(-c2cc(F)cc(N3CCN(c4ccc(NS(=O)(=O)c5ccc(NC(CCN6CCC(C(=O)OCCCP(=O)(O)O)CC6)CSc6ccccc6)c(S(=O)(=O)C(F)(F)F)c5)cc4)CC3)c2)c(-c2ccc(Cl)cc2)n1C(C)C
IC50 (second compound 0.1 µM): > 3000 nM | IC50 (second compound 0.316 µM): > 3000 nM | IC50 (second compound 1 µM): > 3000 nM | IC50 (second compound 3.16 µM): > 3000 nM | IC50 (second compound 10 µM): > 3000 nM | viability, T/C (second compound 0.1 µM, first compound 0.00949 µM): 66.3% | viability, T/C (second compound 0.1 µM, first compound 0.03 µM): 92.1% | viability, T/C (second compound 0.1 µM, first compound 0.0949 µM): 78.6% | viability, T/C (second compound 0.1 µM, first compound 0.3 µM): 69.6% | viability, T/C (second compound 0.1 µM, first compound 0.949 µM): 82.5% | viability, T/C (second compound 0.1 µM, first compound 3 µM): 58.6% | viability, T/C (second compound 0.316 µM, first compound 0.00949 µM): 84% | viability, T/C (second compound 0.316 µM, first compound 0.03 µM): 76.4% | viability, T/C (second compound 0.316 µM, first compound 0.0949 µM): 75.2% | viability, T/C (second compound 0.316 µM, first compound 0.3 µM): 66.9% | viability, T/C (second compound 0.316 µM, first compound 0.949 µM): 58.5% | viability, T/C (second compound 0.316 µM, first compound 3 µM): 60.3% | viability, T/C (second compound 1 µM, first compound 0.00949 µM): 83.1% | viability, T/C (second compound 1 µM, first compound 0.03 µM): 77.6% | viability, T/C (second compound 1 µM, first compound 0.0949 µM): 78.9% | viability, T/C (second compound 1 µM, first compound 0.3 µM): 66.6% | viability, T/C (second compound 1 µM, first compound 0.949 µM): 58.8% | viability, T/C (second compound 1 µM, first compound 3 µM): 63% | viability, T/C (second compound 3.16 µM, first compound 0.00949 µM): 77.9% | viability, T/C (second compound 3.16 µM, first compound 0.03 µM): 69.7% | viability, T/C (second compound 3.16 µM, first compound 0.0949 µM): 92.9% | viability, T/C (second compound 3.16 µM, first compound 0.3 µM): 59.1% | viability, T/C (second compound 3.16 µM, first compound 0.949 µM): 61.6% | viability, T/C (second compound 3.16 µM, first compound 3 µM): 56.7% | viability, T/C (second compound 10 µM, first compound 0.00949 µM): 85.9% | viability, T/C (second compound 10 µM, first compound 0.03 µM): 82.3% | viability, T/C (second compound 10 µM, first compound 0.0949 µM): 75.4% | viability, T/C (second compound 10 µM, first compound 0.3 µM): 68.8% | viability, T/C (second compound 10 µM, first compound 0.949 µM): 56.5% | viability, T/C (second compound 10 µM, first compound 3 µM): 58.3%

COc1c(OCCCN2CCOCC2)ccc2c3n(c(=NC(=O)c4cnc(N)nc4)nc12)CCN3 + Cc1c(S(C)(=O)=O)c(-c2cc(F)cc(N3CCN(c4ccc(NS(=O)(=O)c5ccc(NC(CCN6CCC(C(=O)OCCCP(=O)(O)O)CC6)CSc6ccccc6)c(S(=O)(=O)C(F)(F)F)c5)cc4)CC3)c2)c(-c2ccc(Cl)cc2)n1C(C)C
IC50 (second compound 0.1 µM): 68.1 nM | IC50 (second compound 0.316 µM): 50.3 nM | IC50 (second compound 1 µM): 62.8 nM | IC50 (second compound 3.16 µM): 31.7 nM | IC50 (second compound 10 µM): 29.3 nM | viability, T/C [21]: 60.5% | viability, T/C [22]: 71.7% | viability, T/C [1]: 62.3% | viability, T/C [2]: 41.8% | viability, T/C [3]: 30.4% | viability, T/C [4]: 18.6% | viability, T/C [23]: 72.6% | viability, T/C [24]: 62.3% | viability, T/C [5]: 61.7% | viability, T/C [6]: 35% | viability, T/C [7]: 23.8% | viability, T/C [8]: 16.8% | viability, T/C [25]: 75.9% | viability, T/C [26]: 77.1% | viability, T/C [9]: 62.4% | viability, T/C [10]: 40.1% | viability, T/C [11]: 25.2% | viability, T/C [12]: 14.4% | viability, T/C [27]: 79.3% | viability, T/C [28]: 69.5% | viability, T/C [13]: 49.7% | viability, T/C [14]: 31.1% | viability, T/C [15]: 18.9% | viability, T/C [16]: 16.8% | viability, T/C [29]: 90.1% | viability, T/C [30]: 71.8% | viability, T/C [17]: 48.5% | viability, T/C [18]: 27.5% | viability, T/C [19]: 18.3% | viability, T/C [20]: 8.75%

NC1CCC(NC2CC2c2ccccc2)CC1 (stereo not given) + Cc1c(S(C)(=O)=O)c(-c2cc(F)cc(N3CCN(c4ccc(NS(=O)(=O)c5ccc(NC(CCN6CCC(C(=O)OCCCP(=O)(O)O)CC6)CSc6ccccc6)c(S(=O)(=O)C(F)(F)F)c5)cc4)CC3)c2)c(-c2ccc(Cl)cc2)n1C(C)C
IC50 (second compound 0.1 µM): > 100 nM | IC50 (second compound 0.316 µM): > 100 nM | IC50 (second compound 1 µM): > 100 nM | IC50 (second compound 3.16 µM): > 100 nM | IC50 (second compound 10 µM): > 100 nM | viability, T/C (second compound 0.1 µM, first compound 0.000316 µM): 67.4% | viability, T/C (second compound 0.1 µM, first compound 0.001 µM): 71.3% | viability, T/C [21]: 63.5% | viability, T/C [22]: 75% | viability, T/C [1]: 72.4% | viability, T/C [2]: 64.2% | viability, T/C (second compound 0.316 µM, first compound 0.000316 µM): 81.8% | viability, T/C (second compound 0.316 µM, first compound 0.001 µM): 67.6% | viability, T/C [23]: 87.1% | viability, T/C [24]: 64.5% | viability, T/C [5]: 66.4% | viability, T/C [6]: 61.8% | viability, T/C (second compound 1 µM, first compound 0.000316 µM): 73.8% | viability, T/C (second compound 1 µM, first compound 0.001 µM): 63.2% | viability, T/C [25]: 70.4% | viability, T/C [26]: 66.5% | viability, T/C [9]: 69.4% | viability, T/C [10]: 59.8% | viability, T/C (second compound 3.16 µM, first compound 0.000316 µM): 60.8% | viability, T/C (second compound 3.16 µM, first compound 0.001 µM): 81.5% | viability, T/C [27]: 64.9% | viability, T/C [28]: 65.8% | viability, T/C [13]: 65.4% | viability, T/C [14]: 54.1% | viability, T/C (second compound 10 µM, first compound 0.000316 µM): 79% | viability, T/C (second compound 10 µM, first compound 0.001 µM): 83.2% | viability, T/C [29]: 69.2% | viability, T/C [30]: 69.7% | viability, T/C [17]: 65.9% | viability, T/C [18]: 62%
